# Read-outs that look alike come from different tables or passages of the source. Marks after values point to notes of the source that are not given here.
# How the values were obtained:
# [1] = system: orthotopic UM-UC-1 bladder tumors; assay: Continuous bladder perfusion, orthotopic UM-UC-1 bladder cancer model; assay type: in vivo; conditions: 5 days perfusion; p<0.01 at 0.5, p<0.001 at 1.0 and 5 μg/mL nominal urine concentrations
# Procedure: Perfusion studies: The bladders of the study animals were cannulated on Day 1 and the animals were allowed to recover for 3 days. On Day 5, UM-UC-1 cells (2×10^6 cells) were injected into the lateral wall of each bladder. […] Based on the in vitro results, target urine concentrations of 0.5, 1.0, and 5.0 μg/mL were used in the perfusion experiments. Body weight, daily urine production, and daily water consumption were recorded. At necropsy, a plasma sample, bladder photographs, and bladder weight measurements were recorded.
# The percent reduction in relative tumor weight between the control group and the drug perfusion groups was determined as an initial measure of efficacy.
# [2] = rat, in vivo
# Text: Rat bladders (5 groups of rats, n=3/group) were surgically catheterized under anesthesia and the catheter was externalized, tunneled subcutaneously, and connected to a vascular access harness (VAH) in the neck. Rats were transferred to individual metabolic cages with free access to food and water during the 1-week post-surgery recovery period. […] Plasma and bladder samples were collected at all time points.
# [3] = system: orthotopic RT-112 bladder tumor
# [4] = first 6 hours
# Procedure: Solution formulations were prepared at various strengths in order to administer 0.5 mL volume to each rat bladder to dose 2, 6, and 18 mg/kg. Corresponding doses in nominal amount of drug were 0.5, 1.5, and 4.5 mg, respectively. After 1 hour of post-installation, rats were transferred to metabolic cages for collection of samples for PK determination. […] At each blood sampling time point, bladder samples were taken from each rat for drug analysis. In addition, bladders collected at 96 hours in the 18 mg/kg dose (high-dose) group were microscopically evaluated. Urine collections were limited to initial 0-6 hours post dose from all rats.
# [5] = in vivo; conditions: female, Domestic Yorkshire Crossbred, pig, urine, other: continuous intravesical infusion, 0.22 mg/kg/day
# Text: On Day ~7 a catheter was surgically placed in the bladder of each animal. The distal end of the catheter was anchored to a subcutaneous site and attached to a vascular access port (VAP). The port was secured, and the animals were allowed to recover. Each animal was subsequently fitted with a portable infusion pump that was attached to the bladder catheter via the VAP. […] All excreted urine was collected in 24-hour intervals through Day 6 or 8. Blood samples were collected daily on study Days 1 to 8. Bladder tissue samples were collected from each animal at necropsy.
structure (smiles),measurement,setting,value
"COc1cc(OC)cc(N(CCNC(C)C)c2ccc3ncc(-c4cnn(C)c4)nc3c2)c1 [erdafitinib, N-(3,5-dimethoxyphenyl)-N′-(1-methylethyl)-N-[3-(1-methyl-1H-pyrazol-4-yl)quinoxalin-6-yl]ethane-1,2-diamine]",Bladder weight (tumor growth) vs vehicle control,[1],significant dose-related decrease in bladder weight
same,C72 h,"[2]; female, Sprague-Dawley, 72 h","2,420^a ng/mL"
same,C96 h,[2],BQL
same,C120 h,[2],BQL
same,Bladder weight decrease vs vehicle control,"[3]; 1.0 μg/mL perfusate concentration, p<0.05",significant bladder weight reduction
same,"Body weight loss, maximum mean value","[3]; erdafitinib-treated group, Day 11",up to −3%
same,Percentage of compound eliminated as unchanged drug in the urine,[4]; 2 mg/kg intravesical,23.5%
same,Percentage of compound eliminated as unchanged drug in the urine,[4]; 6 mg/kg intravesical,19%
same,Percentage of compound eliminated as unchanged drug in the urine,[4]; 18 mg/kg intravesical,50.3%
same,concentration at 8 day,[5],1270 ng/mL

# Reference: patent US20260232660A1 (TARIS Biomedical LLC, priority 2023, published 2026)
